Data on twelve molecules can be found in patent US9611262B2, “Substituted 2-azabicycles and their use as orexin receptor modulators” (JANSSEN PHARMACEUTICA NV, priority 2014, dated 2017).

As a reminder, the Ki is the dissociation constant of the complex between target and ligand, obtained from inhibition or displacement.

Where only a bound is given, the exact number is not on record here.

The target in one assay is rat orexin 1 receptor (Rattus norvegicus, UniProt P56718). The experiment in a line: Rat orexin 1 receptor radioligand binding (competitive). Particulars: HEK293 cells stably expressing rat orexin 1 receptor; 4 nM radioligand; averages of 2-20 runs; read-out: rOX1 Ki. A digest of the protocol: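 Competition binding used HEK293 cells expressing rat OX1 or CHO cells expressing human OX1, with 4 nM final [3H]-labelled thiazolyl-oxadiazolyl-pyrrolidinyl methanone radioligand in PBS. Compounds were tested at 7 concentrations (0.1 nM–10 μM) for 60 min at room temperature, then filtered; 10 μM almorexant defined nonspecific binding. Ki was derived from the one-site IC50 and the radioligand Kd.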

Another assay has as its target human orexin 1 receptor (Homo sapiens (Human), UniProt O43613). In words: Human orexin 1 receptor radioligand binding (competitive). Particulars: CHO cells stably expressing human orexin 1 receptor; 4 nM radioligand; averages of 2-20 runs; read-out: hOX1 Ki. The protocol: The in vitro affinity of the compounds of the invention for the rat/human orexin 1 and human orexin 2 receptors was determined by competitive radioligand binding using [^3H](1-(5-(2-fluoro-phenyl)-2-methyl-thiazol-4-yl)-1-((S)-2-(5-phenyl-(1,3,4)oxadiazol-2-ylmethyl)-pyrrolidin-1-yl)-methanone) (Langmead et al., 2004) and [^3H]EMPA (n-ethyl-2[96-methoxy-pyridin-3-yl)-(toluene-2-sulfonyl)-amino]-N-pyridin-3-ylmethyl acetamide), respectively (Langmead et al., 2004, British Journal of Pharmacology 141:340-346; Malherbe et al., 2004, British Journal of Pharmacology 156:1326-41).
Data are analyzed using pc-Sandy macro and graphed on Graphpad Prism 5. For analysis, each concentration point is averaged from triplicate values and the averaged values are plotted on Graphpad Prism. The IC50 was determined by applying the following equation (GraphPad Prism 5.0, San Diego) for one site competition where X=log (concentration) and Y=specific binding. Top denotes the total [^3H]— (1-(5-(2-fluoro-phenyl)-2-methyl-thiazol-4-yl)-1-((S)-2-(5-phenyl-(1,3,4)oxadiazol-2-ylmethyl)-pyrrolidin-1-yl)-methanone) binding, bottom denotes the nonspecific [^3H]— (1-(5-(2-fluoro-phenyl)-2-methyl-thiazol-4-yl)-1-((S)-2-(5-phenyl-(1,3,4)oxadiazol-2-ylmethyl)-pyrrolidin-1-yl)-methanone) binding. Graphpad Prism calculates Ki value from IC50 and the pre-determined Kd values for [^3H]— (1-(5-(2-fluoro-phenyl)-2-methyl-thiazol-4-yl)-1-((S)-2-(5-phenyl-(1,3,4)oxadiazol-2-ylmethyl)-pyrrolidin-1-yl)-methanone) and [^3H]-EMPA. The Ki for each compound is then uploaded into 3DX. Each run comprises individual compounds in triplicate. The data in Table 1 and Table 2 represent averages from between 2-20 runs
Rat and Human Orexin 1 Receptor Radioligand Binding Studies
Human Embryonic Kidney 293 cells (HEK293) stably expressing rat orexin 1 receptor (Genebank accession number NM_001525) or Chinese ovary cells (CHO) stably expressing human orexin 1 receptor (Genebank accession number […]) were grown to confluency in DMEM (Hyclone, cat # SH30022), 10% FBS, 1× Pen/Strep, 1× sodium pyruvate, 10 mM HEPES, 600 μg/mL G418 and DMEM/F12 (Gibco, Cat #11039), 10% FBS, 1× Pen/Strep, 600 μg/mL G418 media, respectively on 150 cm^2 tissue culture plates, washed with 5 mM EDTA in PBS (HyClone Dulbecco's Phosphate Buffered Saline 1× with Calcium and Magnesium, Cat # SH30264.01, hereafter referred to simply as PBS) and scraped into 50 ml tubes. After centrifugation (2K×G, 5 min at 4° C.), the supernatant was aspirated and the pellets frozen and stored at −80° C. Cells were resuspended in PBS in the presence of 1 tablet of protease inhibitor cocktail (Roche, Cat. #11836145001) per 50 mL. […] Competition binding experiments in 96 well polypropylene plates were performed using [^3H]— (1-(5-(2-fluoro-phenyl)-2-methyl-thiazol-4-yl)-1-((S)-2-(5-phenyl-(1,3,4)oxadiazol-2-ylmethyl)-pyrrolidin-1-yl)-methanone) (Moraveck Corporation, specific activity=35.3 Ci/mmol), diluted to a 10 nM concentration in PBS (4 nM final). Compounds were solubilized in 100% DMSO (Acros Organics, Cat. #61042-1000) and tested over a range of 7 concentrations (from 0.1 nM to 10 μM). The final concentration of DMSO in the reactions is equal to or less than 0.1%. Total and nonspecific binding was determined in the absence and presence of 10 μM almorexant. The total volume of each reaction is 200 μL (20 μL of diluted compounds, 80 μL of [^3H]— (1-(5-(2-fluoro-phenyl)-2-methyl-thiazol-4-yl)-1-((S)-2-(5-phenyl-(1,3,4)oxadiazol-2-ylmethyl)-pyrrolidin-1-yl)-methanone) diluted in PBS and 100 μL of the cell suspension). Reactions were run for 60 min at room temperature and terminated by filtration through GF/C filter plates (PerkinElmer, Cat. #6005174) presoaked in 0.3% polyethylenimine using the cell harvester (PerkinElmer Filtermate). The plates were washed 3 times by aspirating 30 ml PBS through the plates. Plates were dried in 55° C. oven for 60 min, scintillation fluid was added, and the radioactivity was counted on a Topcount (Packard). […]

In another assay the target is human orexin 2 receptor (Homo sapiens (Human), UniProt O43614). The experiment in a line: Human orexin 2 receptor radioligand binding ([3H]-EMPA competition). The conditions noted are these: HEK293 stably expressing human orexin 2 receptor; 2 nM [3H]-EMPA; averages of 2-20 runs; read-out: hOX2 Ki. A digest of the protocol: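 Membranes-free whole HEK293 cells stably expressing human OX2 receptor incubated with [3H]-EMPA and compound (7 concentrations, 0.1 nM–10 μM, ≤0.1% DMSO) for 60 min at room temperature; nonspecific binding with 10 μM almorexant. Filtration and scintillation counting; one-site IC50 converted to Ki using predetermined Kd, triplicates averaged over 2-20 runs.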
human orexin 2 receptor, sequence (O43614 whole entry): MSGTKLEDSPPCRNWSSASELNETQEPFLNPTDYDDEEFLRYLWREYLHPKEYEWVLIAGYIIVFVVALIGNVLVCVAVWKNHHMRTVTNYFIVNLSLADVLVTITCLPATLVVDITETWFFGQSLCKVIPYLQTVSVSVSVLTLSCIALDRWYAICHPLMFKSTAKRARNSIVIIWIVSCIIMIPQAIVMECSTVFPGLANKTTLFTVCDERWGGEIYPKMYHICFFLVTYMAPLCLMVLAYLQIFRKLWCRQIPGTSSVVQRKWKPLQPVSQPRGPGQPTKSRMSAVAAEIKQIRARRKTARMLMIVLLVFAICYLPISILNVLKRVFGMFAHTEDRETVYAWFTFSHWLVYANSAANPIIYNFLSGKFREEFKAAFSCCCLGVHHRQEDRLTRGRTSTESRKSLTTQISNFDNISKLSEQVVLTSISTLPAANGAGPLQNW

human orexin 1 receptor, sequence (O43613 whole entry): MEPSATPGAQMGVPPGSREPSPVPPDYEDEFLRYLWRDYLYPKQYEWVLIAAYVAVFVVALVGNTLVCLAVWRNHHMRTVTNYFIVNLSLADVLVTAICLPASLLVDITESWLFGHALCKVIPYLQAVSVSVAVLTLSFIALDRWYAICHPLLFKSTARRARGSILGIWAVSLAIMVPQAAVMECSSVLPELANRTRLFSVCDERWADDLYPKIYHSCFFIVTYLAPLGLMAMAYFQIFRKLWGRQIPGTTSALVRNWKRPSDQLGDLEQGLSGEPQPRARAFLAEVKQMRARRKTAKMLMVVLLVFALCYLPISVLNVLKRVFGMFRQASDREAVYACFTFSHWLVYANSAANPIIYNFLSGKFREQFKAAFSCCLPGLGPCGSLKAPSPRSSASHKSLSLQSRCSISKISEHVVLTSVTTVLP

As to `CCC1C2CC(Oc3ccc(C(F)(F)F)cn3)C(C2)N1C(=O)c1cccc(F)c1-c1ncccn1` (racemic) [Example 217, (R/S)-[2-ethyl-5-[[5-(trifluoromethyl)-2-pyridyl]oxy]-3-azabicyclo[2.2.1]heptan-3-yl]-(3-fluoro-2-pyrimidin-2-yl-phenyl)methanone], the Ki on rat orexin 1 receptor turned out to be 13 nM; at human orexin 1 receptor, 9 nM; on human orexin 2 receptor, 243 nM.
On the same counts, the results for `C[C@@H]1[C@H]2C[C@@H](Oc3ccc(C(F)(F)F)cn3)[C@H](C2)N1C(=O)c1cccc(F)c1-n1nccn1` (relative stereo) [Example 27, (3-fluoro-2-(2H-1,2,3-triazol-2-yl)phenyl)((1S*,3R*,4R*,6R*)-3-methyl-6-((5-(trifluoromethyl)pyridin-2-yl)oxy)-2-azabicyclo[2.2.1]heptan-2-yl)methanone] are 5 nM, 8 nM and 595 nM.
Turning to `C[C@@H]1[C@H]2C[C@@H](Oc3ccc(C(F)(F)F)cn3)[C@H](C2)N1C(=O)c1cc(F)ccc1-n1nccn1` (relative stereo) [Example 29, (5-fluoro-2-(2H-1,2,3-triazol-2-yl)phenyl)((1S*,3R*,4R*,6R*)-3-methyl-6-((5-(trifluoromethyl)pyridin-2-yl)oxy)-2-azabicyclo[2.2.1]heptan-2-yl)methanone], the Ki at rat orexin 1 receptor came to 5 nM; at human orexin 1 receptor, 14 nM; on human orexin 2 receptor, 836 nM.
For the molecule `C[C@@H]1[C@H]2C[C@@H](Oc3ccc(C(F)(F)F)cn3)[C@H](C2)N1C(=O)c1ncccc1-c1ncccn1` (relative stereo) [Example 32, ((1S*,3R*,4R*,6R*)-3-methyl-6-((5-(trifluoromethyl)pyridin-2-yl)oxy)-2-azabicyclo[2.2.1]heptan-2-yl)(3-(pyrimidin-2-yl)pyridin-2-yl)methanone], the figures for the Ki at rat orexin 1 receptor, at human orexin 1 receptor and at human orexin 2 receptor were 6 nM, 8 nM and 1900 nM, respectively.
Regarding `Cc1cnc(C(=O)N2[C@H](C)[C@H]3C[C@@H](Oc4ccc(C(F)(F)F)cn4)[C@@H]2C3)c(-c2ncccc2F)c1` (relative stereo) [Example 34, (3-fluoro-5′-methyl-[2,3′-bipyridin]-2′-yl)((1S*,3R*,4R*,6R*)-3-methyl-6-((5-(trifluoromethyl)pyridin-2-yl)oxy)-2-azabicyclo[2.2.1]heptan-2-yl)methanone], the Ki at rat orexin 1 receptor was found to be 11 nM; on human orexin 1 receptor it was 14 nM; on human orexin 2 receptor, 6300 nM.
The matching figures for `C[C@@H]1[C@H]2C[C@@H](Oc3ccc(C(F)(F)F)nc3)[C@H](C2)N1C(=O)c1cccc(F)c1-n1nccn1` (relative stereo) [Example 38, (3-fluoro-2-(2H-1,2,3-triazol-2-yl)phenyl)((1S*,3R*,4R*,6R*)-3-methyl-6-((6-(trifluoromethyl)pyridin-3-yl)oxy)-2-azabicyclo[2.2.1]heptan-2-yl)methanone]: 216 nM, 283 nM and 4900 nM.
The matching figures for `Cc1cccc(C(=O)N2[C@H](C)[C@H]3C[C@@H](Oc4ccc(C(F)(F)F)nc4)[C@@H]2C3)c1-n1nccn1` (relative stereo) [Example 39, (3-methyl-2-(2H-1,2,3-triazol-2-yl)phenyl)((1S*,3R*,4R*,6R*)-3-methyl-6-((6-(trifluoromethyl)pyridin-3-yl)oxy)-2-azabicyclo[2.2.1]heptan-2-yl)methanone]: 90 nM, 123 nM and 3600 nM.
The matching figures for `Cc1ccc(-n2nccn2)c(C(=O)N2[C@H](C)[C@H]3C[C@@H](Oc4cnc(C(F)(F)F)cn4)[C@@H]2C3)n1` (relative stereo) [Example 46, (6-methyl-3-(2H-1,2,3-triazol-2-yl)pyridin-2-yl)((1S*,3R*,4R*,6R*)-3-methyl-6-((5-(trifluoromethyl)pyrazin-2-yl)oxy)-2-azabicyclo[2.2.1]heptan-2-yl)methanone]: 24 nM, 29 nM and 4300 nM.
Consider `C[C@@H]1[C@H]2C[C@@H](Oc3cnc(C(F)(F)F)cn3)[C@H](C2)N1C(=O)c1ncccc1-n1nccn1` (relative stereo) [Example 47, (3-(2H-1,2,3-triazol-2-yl)pyridin-2-yl)((1S*,3R*,4R*,6R*)-3-methyl-6-((5-(trifluoromethyl)pyrazin-2-yl)oxy)-2-azabicyclo[2.2.1]heptan-2-yl)methanone], for which the inhibitory constant (Ki) at rat orexin 1 receptor is 68 nM; at human orexin 1 receptor, 151 nM; on human orexin 2 receptor, more than 10000 nM.
For the molecule `Cc1cnc(-n2nccn2)c(C(=O)N2[C@H](C)[C@H]3C[C@@H](Oc4cnc(C(F)(F)F)cn4)[C@@H]2C3)c1` (relative stereo) [Example 50, (5-methyl-2-(2H-1,2,3-triazol-2-yl)pyridin-3-yl)((1S*,3R*,4R*,6R*)-3-methyl-6-((5-(trifluoromethyl)pyrazin-2-yl)oxy)-2-azabicyclo[2.2.1]heptan-2-yl)methanone], the Ki is 23 nM on rat orexin 1 receptor, 30 nM at human orexin 1 receptor and more than 10000 nM at human orexin 2 receptor.
For `C[C@@H]1[C@H]2C[C@@H](Oc3cnc(C(F)(F)F)cn3)[C@H](C2)N1C(=O)c1cccc(F)c1-n1nccn1` (relative stereo) [Example 52, (3-fluoro-2-(2H-1,2,3-triazol-2-yl)phenyl)((1S*,3R*,4R*,6R*)-3-methyl-6-((5-(trifluoromethyl)pyrazin-2-yl)oxy)-2-azabicyclo[2.2.1]heptan-2-yl)methanone], the inhibition constant Ki came to 18 nM at rat orexin 1 receptor, 14 nM on human orexin 1 receptor and 2550 nM at human orexin 2 receptor.
For `C[C@@H]1[C@H]2C[C@@H](Oc3cnc(C(F)(F)F)cn3)[C@H](C2)N1C(=O)c1cc(F)ccc1-n1nccn1` (relative stereo) [Example 54, (5-fluoro-2-(2H-1,2,3-triazol-2-yl)phenyl)((1S*,3R*,4R*,6R*)-3-methyl-6-((5-(trifluoromethyl)pyrazin-2-yl)oxy)-2-azabicyclo[2.2.1]heptan-2-yl)methanone], the Ki at rat orexin 1 receptor stood at 26 nM; on human orexin 1 receptor it was 18 nM; on human orexin 2 receptor it was 3400 nM.
